Results published in patent US7642058B2, “Method and apparatus for characterization of interactions” (GE Healthcare Bio-Sciences AB, priority 2003, dated 2010).

Key:
anti-maltose antibody [1] = experiment: Conventional SPR affinity assay, maltose on immobilized anti-maltose antibody; assay type: binding; details: 12 injections 0 to 1500 μM, 25° C.
Procedure: In order to compare the results obtained with pulse injections to results obtained with the conventional method, 12 maltose injections of concentrations ranging from 0 to 1500 μM were performed. The injection time was 15 sec. Data was evaluated from a Req versus C plot using the BIAevaluation software.

anti-maltose antibody [2] = experiment: Pulse injection SPR steady state affinity, maltose on immobilized anti-maltose antibody; details: read-out: average KD; pulse injection method, 25° C., initial concentrations 0.05 and 0.1 mM
Procedure: Roughly the same amount of another antibody, anti-AFP, was immobilized in a reference flowcell in order to minimise errors in reference subtraction due to the high immobilization level. These two proteins were immobilized using the “amine coupling” procedure as follows: HBS-EP was used as running buffer with a constant flow rate of 5 μl/min. After activation for 12 min. with EDC, target (anti-maltose or anti-AFP, 50 μg/ml in 10 mM sodium acetate, pH 5.0) was injected for 7 min., followed by a 12-min. deactivation. Immobilization and all measurements on the surface were performed at 25° C.
Samples of different initial concentrations (0.05 and 0.1 mM) were injected over the surface. The association and dissociation phases of each pulse were 12 seconds. […] Each experiment started with a blank run, i.e., a series of pulses of running buffer alone. The concentration of the first pulse, C1, was assumed to be equal to the concentration in the vial. […]
Response levels were obtained by taking the average of 10 data points at equilibrium. […] The constant multi-concentration pulse series were evaluated with a non-linearly fitted Req versus C plot, whereby KA, KD and Rmax values were obtained directly from the software.

HSA = HSA (Homo sapiens, UniProt P02768)
HSA, sequence (P02768 25-609 limits assumed): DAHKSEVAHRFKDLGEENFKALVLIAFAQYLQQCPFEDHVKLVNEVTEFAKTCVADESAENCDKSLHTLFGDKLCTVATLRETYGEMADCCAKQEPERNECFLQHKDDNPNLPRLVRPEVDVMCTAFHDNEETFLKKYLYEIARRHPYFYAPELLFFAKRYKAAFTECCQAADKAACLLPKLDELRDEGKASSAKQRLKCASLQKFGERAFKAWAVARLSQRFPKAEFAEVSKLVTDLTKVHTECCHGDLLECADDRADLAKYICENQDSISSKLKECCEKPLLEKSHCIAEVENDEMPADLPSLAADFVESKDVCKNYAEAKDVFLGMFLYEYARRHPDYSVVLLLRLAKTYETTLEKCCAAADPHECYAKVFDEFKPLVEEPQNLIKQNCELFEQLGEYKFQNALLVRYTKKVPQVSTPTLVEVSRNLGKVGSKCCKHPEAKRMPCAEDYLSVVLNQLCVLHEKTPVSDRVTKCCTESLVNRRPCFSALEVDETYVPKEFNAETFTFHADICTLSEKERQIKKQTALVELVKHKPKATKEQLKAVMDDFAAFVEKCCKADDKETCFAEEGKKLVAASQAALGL

Row | Structure (SMILES) | Kd (anti-maltose antibody [1]) | Kd (anti-maltose antibody [2]) | site competition on HSA, pair digitoxin and warfarin (HSA)
1 | OC[C@H]1O[C@H](O[C@H]2[C@H](O)[C@@H](O)C(O)O[C@@H]2CO)[C@H](O)[C@@H](O)[C@@H]1O (mixture of isomers) [maltose] | 8.5 mM | 9 mM | 
2 | C[C@H]1O[C@@H](O[C@H]2[C@@H](O)C[C@H](O[C@H]3[C@@H](O)C[C@H](O[C@H]4CC[C@@]5(C)[C@H](CC[C@@H]6[C@@H]5CC[C@]5(C)[C@@H](C7=CC(=O)OC7)CC[C@]65O)C4)O[C@@H]3C)O[C@@H]2C)C[C@H](O)[C@@H]1O [Digitoxin, digitoxin] |  |  | non-competitive binders
